Series [1] concerns SARS-CoV-2. Nature of the series: Cell survival following SARS-CoV-2 challenge. Type of series: cell-based.
Series [2] has as its system wild-type (alpha strain, SARS-CoV-2, USA-WA1/2020) SARS-CoV-2. The experiment in a line: Inhibition of SARS-CoV-2 mediated cell death, wild type (dose response). Type of series: cell-based.
The target of a further series is Helicase (NSP13). The following applies: cited from earlier work.
Series [3] relates to SARS-CoV-2. To be noted: cited from earlier work.
The conditions of series [4]: read-out: Tox CC50, cited from earlier work.
The test system of series [5] is SARS-CoV-2. The arrangement: method as in Ref11. The following applies: in vivo (Sirian hamster); ref Ref11; cited from earlier work.
The mark [6] stands for this setting: Severe acute respiratory syndrome coronavirus 2, Vero, read-out: IC50, dose response anti-viral testing (Figure 4), alpha strain USA-WA1/2020, legend names Vero cells.
The mark [7] stands for this setting: Severe acute respiratory syndrome coronavirus 2, wild-type (alpha strain, USA-WA1/2020), read-out: IC50 Values For inhibition of SARS-CoV-2 Mediated Cell Death, Wild Type.
The mark [8] stands for this setting: wild-type (alpha strain, USA-WA1/2020), read-out: IC50 Values For inhibition of SARS-CoV-2 Mediated Cell Death, Wild Type.

Like-named read-outs stand apart in the source and are kept apart here.

Regarding `O=C(N[C@H](Cc1ccccc1)C(=O)NC1CCC1=O)OCc1ccccc1` (stereo partly drawn) [Compound 2, Benzyl ((2R)-1-oxo-1-((2-oxocyclobutyl)amino)-3-phenylpropan-2-yl) carbamate], the “Cell Survival following SARS-CoV-2 Challenge” value in the series with SARS-CoV-2 [1] (5 µM inhibitor concentration) is 24.2; in the series on SARS-CoV-2 [1] (50 µM inhibitor concentration) it was 34.7. Further, the cell survival with SARS-CoV-2 [1] (at 5 µM) is listed as 24.2%. The figures for the IC50 in series [2] (setting [6]) and in series [2] (setting [7]) were 20.3 ± 14.4 µM and 6.89 µM, respectively. In addition, the “toxicity / growth inhibition of Vero cell line” value (shortened to “toxicity / growth inhibition”) in the series with Vero cell line is given as “some inhibitory effect on Vero cell line growth”.

On to `CCN(CC)C(=S)SSC(=S)N(CC)CC` [Disulfiram], for which the IC50 at Helicase (NSP13) (Enzyme and in vitro assay, ref Ref10) was 0.41 µM; with SARS-CoV-2 [3] (in vitro assay, ref Ref10, read-out: Antiviral activity IC50), 3.18 µM.

Regarding Tannic acid, the IC50 on Helicase (NSP13) (Enzyme assay, ref Ref5) is 1.25 µM.

For the compound `Oc1cc(O)c2c(c1)O[C@H](c1cc(O)c(O)c(O)c1)[C@H](O)[C@H]2c1c(O)cc(O)c2c1O[C@H](c1cc(O)c(O)c(O)c1)[C@H](O)[C@H]2c1c(O)cc(O)c2c1O[C@H](c1cc(O)c(O)c(O)c1)[C@H](O)C2` [Katacine], the IC50 at Helicase (NSP13) (Enzyme assay, ref Ref5) is 5.98 µM.

As for “(2R)-2-((4-Methoxyphenyl) sulfonamido)-3-methyl-N-(2-oxocyclobutyl) butanamide [Compound 8]”, the “Cell Survival following SARS-CoV-2 Challenge” value in the series with SARS-CoV-2 [1] (5 µM inhibitor concentration) turned out to be 32.0; in the series on SARS-CoV-2 [1] (50 µM inhibitor concentration), 49.1. Also, the IC50 in series [2] (setting [8]) was found to be 13.7 µM.

Turning to `O=C(N/N=C/c1cc(O)c(O)cc1O)c1cc2ccccc2cc1O` [Dyngo-4a], the IC50 at Helicase (NSP13) (Enzyme assay, ref Ref5) was 0.63 µM.

As for `Cc1ccc(S(=O)(=O)N[C@@H](Cc2c[nH]c3ccccc23)C(=O)NC2CCC2=O)cc1` (stereo partly drawn) [Compound 4, (2S)-3-(1H-Indol-3-yl)-2-((4-methylphenyl)sulfonamido)-N-(2-oxocyclobutyl)propanamide], the “Cell Survival following SARS-CoV-2 Challenge” value is given as 54.3 with SARS-CoV-2 [1] (5 µM inhibitor concentration) and 70.9 in the series with SARS-CoV-2 [1] (50 µM inhibitor concentration). Further, the IC50 in series [2] (setting [6]) was determined as 13.2 ± 2.35 µM; in series [2] (Severe acute respiratory syndrome coronavirus 2, read-out: IC50 Values For inhibition of SARS-CoV-2 Mediated Cell Death, Wild Type, wild-type (alpha strain, USA-WA1/2020)), 6.7 µM; in series [2] (setting [8]), 13 µM. The “toxicity / growth inhibition” value in the series with Vero cell line was “least toxic against the Vero cell line”.

For `O=C(N[C@@H](Cc1ccc(O)cc1)C(=O)NC1CCC1=O)OCc1ccccc1` (stereo partly drawn) [Compound 7, Benzyl ((2S)-3-(4-hydroxyphenyl)-1-oxo-1-((2-oxocyclobutyl)amino)propan-2-yl) carbamate], the “Cell Survival following SARS-CoV-2 Challenge” value in the series with SARS-CoV-2 [1] (5 µM inhibitor concentration) is on record as -2; with SARS-CoV-2 [1] (50 µM inhibitor concentration), 28.1.

As for `Cc1ccc(S(=O)(=O)N[C@@H](Cc2ccccc2)C(=O)NC2CCC2=O)cc1` (stereo partly drawn) [Compound 1, (2S)-2-((4-Methylphenyl)sulfonamido)-N-(2-oxocyclobutyl)-3-phenylpropanamide], the entries for the “Cell Survival following SARS-CoV-2 Challenge” value in the series with SARS-CoV-2 [1] (5 µM inhibitor concentration) and in the series with SARS-CoV-2 [1] (50 µM inhibitor concentration) were 39.3 and 49.8, respectively. Also, in series [2] (setting [7]), the IC50 stood at 15.4 µM.

With `C=CCn1c(CSc2ccccc2[N+](=O)[O-])n[nH]c1=S` [SSYA10-001], in series [4] (In vitro, ref Ref4), the half-maximal cytotoxic concentration (CC50) is 80.5 µM.

For `CNC(=C[N+](=O)[O-])NCCSCc1ccc(CN(C)C)o1.O=C([O-])CC(O)(CC(=O)[O-])C(=O)[O-].[Bi+3]` [Ranitidine bismuth citrate], the IC50 on Helicase (NSP13) (In vitro & in vivo, ref Ref11, read-out: Enzyme Assay IC50) was 0.69 µM. Further, the “viral load redn in Animal lungs & nasal turbinate” value with SARS-CoV-2 [5] is reported as 1 to 1.5 log. For the same compound, the CC50 in series [4] (ref Ref11) is 3250 µM.

On to `COc1cc(C(=O)NS(=O)(=O)c2ccccc2C)ccc1Cc1cn(C)c2ccc(NC(=O)OC3CCCC3)cc12` [Zafirlukast], for which the IC50 on Helicase (NSP13) (Enzyme assay, ref Ref7) is 16.3 µM.

As for `O=C([O-])c1cc(=O)[nH]c(=O)[nH]1.O=C([O-])c1cc(=O)[nH]c(=O)[nH]1.[Zn+2]` [Zinc Orotate], the IC50 on Helicase (NSP13) (Enzyme assay, ref Ref5) was 4.12 µM.

For `O=C(O)CSc1cc(NS(=O)(=O)c2ccc(Br)cc2)c2ccccc2c1O` [UMI-77], the IC50 at Helicase (NSP13) (Enzyme assay, ref Ref5) is 4.38 µM.

Regarding `Cc1ccc(S(=O)(=O)N[C@@H](Cc2ccccc2)C(=O)NCC(C)(C)O)cc1` [Compound 10, (S)-N-(2-hydroxy-2-methylpropyl)-2-((4-methylphenyl)sulfonamido)-3-phenylpropanamide], the “Cell Survival following SARS-CoV-2 Challenge” value in the series with SARS-CoV-2 [1] (5 µM inhibitor concentration) was 36.7; in the series with SARS-CoV-2 [1] (50 µM inhibitor concentration), 59.2. Also, the values for the IC50 in series [2] (setting [6]) and in series [2] (setting [7]) were 6.95 ± 1.95 µM and 6.68 µM, respectively. The “toxicity / growth inhibition” value in the series with Vero cell line is on record as “some inhibitory effect on Vero cell line growth”.

Turning to `COc1ccc2cc1Oc1ccc(cc1)C[C@H]1c3c(cc4c(c3Oc3cc5c(cc3OC)CCN(C)[C@@H]5C2)OCO4)CCN1C` [cepharanthine], the IC50 in the series on SARS-CoV-2 [3] (read-out: IC50, anti-SARS-CoV-2 activity) was 400 µM.

Regarding `CC(C)=CCc1c(O)cc(O)c2c(=O)cc(-c3ccc(O)cc3)oc12` [licoflavone C], on Helicase (NSP13) (Enzyme assay, ref Ref8), the IC50 was 1.34 µM.

For the compound `Cc1ccc(S(=O)(=O)N[C@H](Cc2ccccc2)C(=O)NC2CCC2=O)cc1` (stereo partly drawn) [Compound 6, (2R)-2-((4-Methylphenyl)sulfonamido)-N-(2-oxocyclobutyl)-3-phenylpropanamide], the figures for the “Cell Survival following SARS-CoV-2 Challenge” value with SARS-CoV-2 [1] (5 µM inhibitor concentration) and with SARS-CoV-2 [1] (50 µM inhibitor concentration) were 26.6 and 35.9, respectively.

Turning to `C=C[C@@H]1C[C@]1(NC(=O)[C@@H]1C[C@@H]2CN1C(=O)[C@H](C(C)(C)C)NC(=O)O[C@@H]1C[C@H]1CCCCCc1nc3ccc(OC)cc3nc1O2)C(=O)NS(=O)(=O)C1CC1` [Grazoprevir], in the series with SARS-CoV-2 [3] (in vitro assay, ref Ref6, read-out: Antiviral activity IC50), the IC50 was 1.41 µM.

Regarding `CC(C)[C@H](NC(=O)CCCCCN1C(=O)C=CC1=O)C(=O)N[C@@H](CCCNC(N)=O)C(=O)Nc1ccc(COC(=O)Oc2ccc([N+](=O)[O-])cc2)cc1` [MC-Val-Cit-PABC-PNP], the IC50 on Helicase (NSP13) (Enzyme assay, ref Ref5) is 2.45 µM.

Consider `CC(C)c1cc2c(c(O)c1O)[C@@]13CCCC(C)(C)[C@@H]1[C@H](OC3=O)[C@H]2O` [Rosmanol], for which, at Helicase (NSP13) (Enzyme assay, ref Ref5), the IC50 was 8.93 µM.

`O=C(N[C@@H](Cc1ccccc1)C(=O)NC1CCC1=O)OCc1ccccc1` (stereo partly drawn) [Compound 9, Benzyl ((2S)-1-oxo-1-((2-oxocyclobutyl)amino)-3-phenylpropan-2-yl) carbamate]: the “Cell Survival following SARS-CoV-2 Challenge” value was 41.6 in the series on SARS-CoV-2 [1] (5 µM inhibitor concentration) and 57.5 with SARS-CoV-2 [1] (50 µM inhibitor concentration). In series [2] (setting [6]), the IC50 turned out to be 8.53 ± 5.15 µM.

On to FPA124, for which the IC50 is 8.5 µM at Helicase (NSP13) (Enzyme assay, ref Ref9) and 14 µM with SARS-CoV-2 [3] (ref Ref9, read-out: Antiviral activity IC50).

For the compound `O=C1O[C@H]2[C@@H]3OC(=O)c4cc(O)c(O)c(O)c4-c4c(O)c(O)c5oc(=O)c6c(c(O)c(O)c7oc(=O)c4c5c76)-c4c(cc(O)c(O)c4O)C(=O)OC[C@H]3OC(O)[C@@H]2OC(=O)c2cc(O)c(O)c(O)c2-c2c1cc(O)c(O)c2O` (mixture of isomers) [Punicalagin], the IC50 was 0.43 µM at Helicase (NSP13) (Enzyme assay, ref Ref5) and 0.347 µM with SARS-CoV-2 [3] (in vitro assay, ref Ref5, read-out: Antiviral activity IC50). The CC50 in series [4] (ref Ref5) was 33.9 µM.

Take `CC(C)[C@H](NC(=O)OCc1ccccc1)C(=O)NC1CCC1=O` (stereo partly drawn) [Compound 3, Benzyl ((2S)-3-methyl-1-oxo-1-((2-oxocyclobutyl)amino)butan-2-yl) carbamate]: the “Cell Survival following SARS-CoV-2 Challenge” value in the series on SARS-CoV-2 [1] (5 µM inhibitor concentration) was determined as 37.9; in the series with SARS-CoV-2 [1] (50 µM inhibitor concentration), 54.9. The IC50 is 15.1 ± 8.22 µM in series [2] (setting [6]) and 13.1 µM in series [2] (setting [7]).

As for `Cc1ccc(S(=O)(=O)N[C@@H](Cc2ccccc2)C(=O)NCC2(O)CC2)cc1` [Compound 5, (S)-N-((1-hydroxycyclopropyl)methyl)-2-((4-methylphenyl)sulfonamido)-3-phenylpropanamide], the “Cell Survival following SARS-CoV-2 Challenge” value is listed as 30.0 in the series with SARS-CoV-2 [1] (5 µM inhibitor concentration) and 30.7 in the series on SARS-CoV-2 [1] (50 µM inhibitor concentration).

By CC50 is commonly meant the concentration that lowers cell viability or growth by half.

These data come from article PMC10049026, “In Silico Binding of 2-Aminocyclobutanones to SARS-CoV-2 Nsp13 Helicase and Demonstration of Antiviral Activity” (International Journal of Molecular Sciences, 2023).
